Like-named read-outs stand apart in the source and are kept apart here.
Experiments:
Type in all cases: cell-based
[1] = test system: 427 Trypanosoma brucei brucei trypomastigotes; test: In vitro anti-trypanosomal assay (resazurin); conditions: 48 h; for viability at 20 µM: read-out: % Viability at 20 µM (SD) T.b. brucei; for IC50: three-fold serial dilutions from 100 µM, read-out: IC50 (µM) T. b. brucei
Description: The activity of the compounds against 427 Trypanosoma brucei brucei trypomastigotes was determined as previously described. Briefly, parasites were incubated in 96-well plates with 20 µM or three-fold serial dilutions (100 µM starting concentration) of test compounds in Iscove’s modified Dulbecco’s medium (IMDM) (Lonza, Basel, Switzerland) supplemented with 10% fetal calf serum, HMI-9 supplement, hypoxanthine, and penicillin/streptomycin at 37 °C in a 5% CO2 incubator. After 48 h, 20 µL of resazurin reagent (0.135 mg/mL resazurin in phosphate-buffered saline) was added to each well and the fluorescence (Ex560/Em590) read after 2–4 h in a Spectramax M3 plate reader (Molecular Devices, San Jose, CA, USA). The fluorescence readings were used to calculate % parasite viability relative to the readings obtained from the wells containing untreated control parasite cultures. The IC50 values were determined by plotting % viability vs. log(compound) and performing a non-linear regression using a GraphPad Prism (v. 5.02) (San Diego, CA, USA).
(§1) Thirty-five tetralone derivatives (see Figure 2) and six related benzocycloalkanones (see Figure 3) were evaluated in vitro against T. b. brucei for antitrypanosomal activity through the resazurin assay protocol. The compounds were also evaluated against the chloroquine-sensitive strain (3D7) of P. falciparum for antimalarial activity using pLDH assay and against the HeLa cell line for cytotoxicity evaluation using the resazurin assay protocol.

[2] = In vitro cytotoxicity assay (resazurin); conditions: human, HeLa cells; 20 µM compound, 24 h, % cell viability relative to untreated control; read-out: % Viability at 20 µM (SD) HeLa Cell
Description: As previously described, HeLa cells (Cellonex, Johannesburg, South Africa) were seeded in 96-well plates at a density of 2 × 10^4 cells/well in Dulbecco’s modified Eagle’s medium (DMEM) (Lonza, Basel, Switzerland) supplemented with 10% fetal calf serum and antibiotics (penicillin/streptomycin/amphotericin B) and incubated overnight at 37 °C in a 5% CO2 incubator. Compounds were added to the cells at a final concentration of 20 µM, and incubation continued for 24 h. The cell viability in the wells was assessed by adding 20 µL of resazurin reagent (0.135 mg/mL resazurin in phosphate-buffered saline) and reading the fluorescence (Ex560/Em590) after an additional 2–4 h incubation. The fluorescence readings were converted to % cell viability relative to the average readings obtained from the untreated control wells.
as §1

[3] = test system: chloroquine sensitive strain of P. falciparum (3D7); test: In vitro antiplasmodial assay (parasite lactate dehydrogenase, pLDH); conditions: Plasmodium falciparum, 3D7, 48 h, 20 µM compound, 48 h, P. falciparum 3D7, % parasite viability relative to untreated parasites; read-out: % Viability at 20 µM (SD) 3D7
Description: An antimalarial evaluation was performed against the chloroquine sensitive strain of P. falciparum (3D7) using the parasite lactate dehydrogenase (pLDH) assay as previously reported. Parasites were seeded at 2% parasitemia and 1% hematocrit in 96 well plates and were incubated with 20 µM of the test compounds for 48 h in culture medium consisting of Rosell Park Memorial Institute (RPMI 1640; Lonza, Basel, Switzerland) containing 25 mM 4-(2-hydroxyethyl)-1-piperazineethanesulfonic acid (HEPES), supplemented with 0.5% (w/v) Albumax II, 22 mM glucose, 0.65 mM hypoxanthine, 0.05mg/mL gentamicin, and 1% (v/v) human erythrocytes, at 37 °C under an atmosphere of 5% CO2, 5% O2, and 90% N2. The parasite lactate dehydrogenase activity in the wells was determined using the colorimetric assay method of Makler et al.. The absorbance readings were converted to % parasite viability relative to the wells containing untreated parasites.
as §1

[4] = Trypanosoma brucei, 20 µM compound, % parasite viability relative to untreated control

Row | SMILES | viability at 20 µM [1, 4] [%] | IC50 ([1]; Trypanosoma brucei) [µM] | viability at 24 h, 20 µM [2] [%] | viability at 20 µM [3] [%] | % Viability at 20 µM (SD) T.b. brucei ([1]; 20 µM compound, % parasite viability relative to untreated control, 20 µM) | IC50 [1] [µM]
1 | COc1ccc2c(c1)C(=O)/C(=C/C1CCCC1)CC2 [Compound 27] | < 1 | 5.4 | 85 | 81 | – | –
2 | COc1ccc2c(c1)C(=O)/C(=C/c1ccccc1)CC2 [Compound 10] | – | 1.04 | 65 | 113 | – | –
3 | O=C1/C(=C/c2ccccc2)CCc2cc(O)ccc21 [Compound 7] | 0.66 | 0.4 | 54 | 89 | 0.6 (0.2) % | 0.46
4 | COc1ccc2c(c1)C(=O)/C(=C/c1ccsc1)CC2 [Compound 35] | 22 | 2.6 | 122 | 86 | – | –
5 | COc1ccc(/C=C2\CCc3ccccc3C2=O)cc1 [Compound 4] | 0.5 | 6.7 | 76 | 100 | – | –

— publication PMC6572618, “Anti-Trypanosomal and Antimalarial Properties of Tetralone Derivatives and Structurally Related Benzocycloalkanones” (Medicina, 2019)
